The record followed here is US9556159B2, “Renin inhibitor” (MITSUBISHI TANABE PHARMA CORPORATION, priority 2012, dated 2017).

SMILES strings stand for the structures.

The test concerns the target T1, Recombinant human renin (Homo sapiens, UniProt P00797).
T1 sequence (P00797 67-406): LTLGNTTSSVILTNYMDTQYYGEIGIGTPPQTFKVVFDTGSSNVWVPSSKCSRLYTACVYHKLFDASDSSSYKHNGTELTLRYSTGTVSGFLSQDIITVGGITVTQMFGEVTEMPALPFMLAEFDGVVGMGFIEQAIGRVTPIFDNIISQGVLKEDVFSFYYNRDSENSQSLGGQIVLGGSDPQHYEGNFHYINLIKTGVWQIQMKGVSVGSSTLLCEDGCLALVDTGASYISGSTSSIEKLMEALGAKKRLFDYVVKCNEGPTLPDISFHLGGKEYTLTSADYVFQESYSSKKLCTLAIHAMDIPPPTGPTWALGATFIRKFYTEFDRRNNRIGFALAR
In words: Inhibitory activity against human renin (fluorogenic peptide substrate). Type of test: biochemical. As to conditions: 50% inhibitory concentration (IC50) against human renin, 37° C. for 1 hour.
In the case of `COC(=O)NCCCc1sc([C@@H](C)N(C(=O)[C@H]2CNCCO2)C2CC2)nc1-c1ccccc1` [Example 206], the IC50 turned out to be 1.5 nM. `C[C@H](c1cn(Cc2cccc(OC(F)(F)F)c2)c(-c2ccccc2)n1)N(C(=O)[C@H]1CNCCO1)C1CC1` [Example 207]: the IC50 was found to be 6.9 nM. Under `COC(=O)NCCOc1cc([C@@H](C)N(C(=O)[C@H]2CNCCO2)C2CC2)nn1-c1ccccc1` [Example 208] stands 2.3 nM; under `CCn1nc([C@@H](C)N(C(=O)[C@H]2CNCCO2)C2CC2)cc1CCCNC(=O)OC` [Example 209], 2.1 nM; under `COC(=O)NCCCc1cc([C@@H](C)N(C(=O)[C@H]2CNCCO2)C2CC2)nn1C1CCCCC1` [Example 210], 0.2 nM.

With `COC(=O)NCCCc1cc([C@@H](C)N(C(=O)[C@H]2CNCCO2)C2CC2)nn1-c1ccccc1F` [Example 211], the IC50 turned out to be 0.5 nM. Under `CCc1cc([C@@H](C)N(C(=O)[C@H]2CNCCO2)C2CC2)nc2ccccc12` [Example 212] stands 4.6 nM; under `COC(=O)NCCCc1cc([C@@H](C)N(C(=O)[C@H]2CNCCO2)C2CC2)nn1C(C)(C)C` [Example 213], 0.3 nM.

Turning to `C[C@H](c1cn(Cc2cccc(F)c2)c(-c2ccccc2)n1)N(C(=O)[C@H]1CNCCO1)C1CC1` [Example 214], the IC50 amounted to 2.8 nM. As for `COC(=O)NCCCn1cc([C@@H](C)N(C(=O)[C@H]2CNCCO2)C2CC2)nc1C(C)(C)C` [Example 215], the IC50 was 0.5 nM. Regarding `COC(=O)NCCCn1nc([C@@H](C)N(C(=O)[C@H]2CNCCO2)C2CC2)c(F)c1-c1ccccn1` [Example 216], the IC50 is 0.1 nM. For `CCc1c([C@@H](C)N(C(=O)[C@H]2CNCCO2)C2CC2)nn(CCCNC(=O)OC)c1-c1ccccn1` [Example 217], the half-inhibitory concentration (IC50) amounted to 1.5 nM. Regarding `COC(=O)NCCCc1nc([C@@H](C)N(C(=O)[C@H]2CNCCO2)C2CC2)sc1-c1ccccc1` [Example 218], the IC50 worked out at 1.1 nM. Under `COC(=O)NCCCn1cc([C@@H](C)N(C(=O)[C@H]2CNC[C@@H](C(F)(F)F)O2)C2CC2)nc1-c1ccccc1` [Example 219] stands 0.4 nM. In the case of `COC(=O)NCCCn1nc([C@@H](C)N(C(=O)[C@H]2CNCCO2)C2CC2)c(C)c1-c1ccccn1` [Example 220], the IC50 is 0.4 nM. Consider `COC(=O)NCCCc1cc([C@@H](C)N(C(=O)[C@H]2CNCCO2)C2CC2)nn1-c1ccc(F)cc1` [Example 221], for which the IC50 was found to be 0.3 nM. Under `COC(=O)NCCCc1cc([C@@H](C)N(C(=O)[C@H]2CNCCO2)C2CC2)nn1-c1ccccc1C` [Example 222] stands 0.5 nM. In the case of `COC(=O)NCCCn1nc([C@@H](C)N(C(=O)[C@H]2CNCCO2)C2CC2)cc1-c1ncc(C)cc1F` [Example 223], the IC50 was 0.4 nM. On to `COC(=O)NCCCc1csc([C@@H](C)N(C(=O)[C@H]2CNCCO2)C2CC2)c1` [Example 224], for which the half-maximal inhibitory concentration (IC50) was 3.1 nM. Turning to `COC(=O)NCCCc1cc([C@@H](C)N(C(=O)[C@H]2CNCCO2)C2CC2)nn1C(C)C` [Example 225], the IC50 came to 0.5 nM. As for `COC(=O)NCCCc1cc([C@@H](C)N(C(=O)[C@H]2CNCCO2)C2CC2)sc1-c1cccc(C)n1` [Example 226], the figure is 0.3 nM; as for `COC(=O)NCCCc1cc([C@@H](C)N(C(=O)[C@H]2CNCCO2)C2CC2)sc1-c1ccccn1` [Example 227], 0.2 nM; as for `COC(=O)NCCCc1cc([C@@H](C)N(C(=O)[C@H]2CNCCO2)C2CC2)sc1-c1ccc(C)nc1` [Example 228], 0.4 nM. In the case of `COC(=O)NCCCc1cc([C@@H](C)N(C(=O)[C@H]2CNCCO2)C2CC2)sc1-c1ccccc1F` [Example 229], the IC50 stood at 0.5 nM. Turning to `COC(=O)NCCCn1cc([C@@H](C)N(C(=O)[C@H]2CNC[C@@H](C)O2)C2CC2)nc1-c1ccccc1` [Example 230], the IC50 stood at 0.5 nM. Under `COC(=O)NCCCc1cc([C@@H](C)N(C(=O)[C@H]2CNCCO2)C2CC2)nn1-c1ccc(C)cc1` [Example 231] stands 1.2 nM; under `COCCCCc1cc([C@@H](C)N(C(=O)[C@H]2CNCCO2)C2CC2)nn1-c1ccccc1` [Example 232], 0.6 nM; under `COC(=O)NCCCn1nc([C@@H](C)N(C(=O)[C@H]2CNCCO2)C2CC2)c2c1C(C)(C)CC2` [Example 233], 0.3 nM. In the case of `COC(=O)NCCCn1nc([C@@H](C)N(C(=O)[C@H]2CNCCO2)C2CC2)c(C)c1-c1ncccc1F` [Example 234], the IC50 worked out at 0.4 nM. For the molecule `COC(=O)NCCCc1cc([C@@H](C)N(C(=O)[C@H]2CNCCO2)C2CC2)sc1-c1ccc(F)cn1` [Example 235], the IC50 was 0.1 nM. For the molecule `COC(=O)NCCCc1cc([C@@H](C)N(C(=O)[C@H]2CNCCO2)C2CC2)sc1-c1ncccc1C` [Example 236], the IC50 was found to be 0.2 nM. Under `CCOc1cc([C@@H](C)N(C(=O)[C@H]2CNCCO2)C2CC2)cc(CCCNC(=O)OC)n1` [Example 237] stands 0.5 nM; under `COC(=O)NCCCc1cc([C@@H](C)N(C(=O)[C@H]2CNC[C@@H](C)O2)C2CC2)cc(OC)n1` [Example 238], 0.6 nM; under `COC(=O)NCCCn1nc([C@@H](C)N(C(=O)[C@H]2CNC[C@@H](C(F)(F)F)O2)C2CC2)c2ccc(C)nc21` [Example 239], 3.1 nM. In the case of `COC(=O)NCCCc1cc([C@@H](C)N(C(=O)[C@H]2CNCCO2)C2CC2)sc1-c1cnn(C)c1` [Example 240], the IC50 was 0.2 nM. Turning to `COC(=O)NCCCc1cc([C@@H](C)N(C(=O)[C@H]2CNCCO2)C2CC2)sc1-c1cncnc1` [Example 242], the IC50 amounted to 0.8 nM. Under `COC(=O)NCCCc1cc([C@@H](C)N(C(=O)[C@H]2CNCCO2)C2CC2)nn1-c1ccccc1OC` [Example 243] stands 0.7 nM; under `COC(=O)NCCCc1c(F)c([C@@H](C)N(C(=O)[C@H]2CNCCO2)C2CC2)nn1-c1ccccc1` [Example 244], 1 nM; under `COC(=O)NCCCn1cc([C@@H](C)N(C(=O)[C@H]2CNC[C@@H](C)O2)C2CC2)nc1C(C)C` [Example 245], 0.3 nM.

As to `COC(=O)NCCCc1cc([C@@H](C)N(C(=O)[C@H]2CNCCO2)C2CC2)sc1C(F)(F)F` [Example 246], the IC50 amounted to 0.4 nM.

For the molecule `COC(=O)NCCCn1nc([C@@H](C)N(C(=O)[C@H]2CNCCO2)C2CC2)nc1-c1ccc(C)cc1` [Example 247], the IC50 turned out to be 1.3 nM. Regarding `COC(=O)NCCCn1nc([C@@H](C)N(C(=O)[C@H]2CNCCO2)C2CC2)nc1-c1ccccc1C` [Example 248], the IC50 was 0.9 nM. Under `COC(=O)NCCCn1nc([C@@H](C)N(C(=O)[C@H]2CN[C@@H](C)CO2)C2CC2)c2ccc(C)nc21` [Example 249] stands 0.5 nM; under `COC(=O)NCCCn1nc([C@@H](C)N(C(=O)[C@H]2CNC[C@@H](C)O2)C2CC2)c2ccc(C)nc21` [Example 250], 0.3 nM.

In the case of `CCOc1ncc([C@@H](C)N(C(=O)[C@H]2CNCCO2)C2CC2)cc1CCCNC(=O)OC` [Example 251], the IC50 is 0.8 nM. Under `COC(=O)NCCCn1cc([C@@H](C)N(C(=O)[C@H]2CNC[C@@H](C(F)(F)F)O2)C2CC2)c2ncccc21` [Example 252] stands 6.4 nM; under `COC(=O)NCCCn1nc([C@@H](C)N(C(=O)[C@H]2CNC[C@@H](C(=O)NCc3ccccc3)O2)C2CC2)c2ccc(C)nc21` [Example 253], 0.4 nM; under `COC(=O)NCCCn1nc([C@@H](C)N(C(=O)[C@H]2CNC[C@@H](C(=O)OC)O2)C2CC2)c2ccc(C)nc21` [Example 254], 0.5 nM.

As to `COC(=O)NCCCn1nc([C@@H](C)N(C(=O)[C@H]2CNC[C@@H](CO)O2)C2CC2)c2ccc(C)nc21` [Example 255], the IC50 stood at 0.4 nM. Regarding `COC(=O)NCCCn1nc([C@@H](C)N(C(=O)[C@H]2CNC[C@@H](C(=O)N(C)C)O2)C2CC2)c2ccc(C)nc21` [Example 256], the IC50 worked out at 3.1 nM. On to `COC(=O)NCCCn1nc([C@@H](C)N(C(=O)[C@H]2CN[C@@H](COCc3ccccc3)CO2)C2CC2)c2ccc(C)nc21` [Example 257], for which the IC50 was 1.3 nM.

Consider `COC(=O)NCCCn1nc([C@@H](C)N(C(=O)[C@H]2CN[C@@H](CO)CO2)C2CC2)c2ccc(C)nc21` [Example 258], for which the IC50 came to 3.2 nM.

As to `CNC(=O)[C@@H]1CNC[C@H](C(=O)N(C2CC2)[C@H](C)c2nn(CCCNC(=O)OC)c3nc(C)ccc23)O1` [Example 259], the IC50 turned out to be 1.2 nM. As for `COC(=O)NCCCc1cc([C@@H](C)N(C(=O)[C@H]2CNCCO2)C2CC2)sc1-c1cc(C(=O)OC)cc(C(F)(F)F)c1` [Example 260], the figure is 2.6 nM; as for `COC[C@H]1CO[C@@H](C(=O)N(C2CC2)[C@H](C)c2nn(CCCNC(=O)OC)c3nc(C)ccc23)CN1` [Example 261], 0.7 nM; as for `COC(=O)NCCCc1cc([C@@H](C)N(C(=O)[C@H]2CNCCO2)C2CC2)sc1-c1cc(C(F)(F)F)ccc1C(=O)OC` [Example 262], 3.9 nM. Under `COC(=O)NCCCc1cc([C@@H](C)N(C(=O)[C@H]2CNCCO2)C2CC2)sc1-c1cccc(-c2nnn[nH]2)c1` [Example 263] stands 0.2 nM; under `COC(=O)NCCCc1cc([C@@H](C)N(C(=O)[C@H]2CNCCO2)C2CC2)sc1-c1ccccc1O` [Example 264], 1.1 nM; under `COC(=O)NCCCn1nc([C@@H](C)N(C(=O)[C@H]2CN[C@@H](CF)CO2)C2CC2)c2ccc(C)nc21` [Example 265], 6.8 nM. Under `COC(=O)NCCCc1cc([C@@H](C)N(C(=O)[C@H]2CN[C@@H](C)CO2)C2CC2)cc(OC)n1` [Example 266] stands 2.7 nM.

The term IC50 denotes the concentration needed to halve the response being measured.
